Assays:
[1] = system: diet-induced obese mice; conditions: cited from earlier work
[2] = target: IP6K3 (Homo sapiens (Human), UniProt Q96PC2); assay: Enzyme-coupled assay of IP6K3 activity (Dipp1-coupled, malachite green Pi release); format: biochemical; conditions: enzyme-coupled assay
[3] = target: IP6K1 (Homo sapiens (Human), UniProt Q92551); assay: Enzyme-coupled assay of IP6K1 activity (Dipp1-coupled, malachite green Pi release); format: biochemical; conditions: enzyme-coupled assay
Method: (§1) […] The cells were disrupted using a constant cell disruption system (Constant Systems) under 20 kPsi.
(§2) Pi release was determined with a malachite green colorimetric assay.^45 Where indicated, TNP (Cayman Chemical) was added to the assays (FIG. 2A-E).

[4] = target: IPMK (Homo sapiens (Human), UniProt Q8NFU5); assay: Enzyme-coupled assay, IPMK IC50; format: biochemical; conditions: enzyme-coupled assay; for IC50: Table 4
IPMK, sequence (Q8NFU5 whole entry, species assumed): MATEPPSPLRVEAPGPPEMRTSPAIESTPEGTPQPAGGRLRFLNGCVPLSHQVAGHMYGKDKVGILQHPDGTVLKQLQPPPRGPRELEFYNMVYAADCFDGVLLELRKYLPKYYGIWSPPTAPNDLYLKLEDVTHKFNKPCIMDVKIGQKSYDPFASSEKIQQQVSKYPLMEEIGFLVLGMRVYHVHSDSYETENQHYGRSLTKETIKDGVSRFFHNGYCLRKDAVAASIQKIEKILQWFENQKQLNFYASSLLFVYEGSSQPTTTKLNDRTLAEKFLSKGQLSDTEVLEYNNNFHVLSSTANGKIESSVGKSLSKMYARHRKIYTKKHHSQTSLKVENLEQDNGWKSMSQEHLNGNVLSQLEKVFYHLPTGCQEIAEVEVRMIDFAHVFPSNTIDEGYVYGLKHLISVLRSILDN

[5] = target: IP6K2 (Homo sapiens (Human), UniProt Q9UHH9); assay: Enzyme-coupled assay of IP6K2 activity (Dipp1-coupled, malachite green Pi release); format: biochemical; conditions: enzyme-coupled assay
IP6K2, sequence (Q9UHH9 whole entry): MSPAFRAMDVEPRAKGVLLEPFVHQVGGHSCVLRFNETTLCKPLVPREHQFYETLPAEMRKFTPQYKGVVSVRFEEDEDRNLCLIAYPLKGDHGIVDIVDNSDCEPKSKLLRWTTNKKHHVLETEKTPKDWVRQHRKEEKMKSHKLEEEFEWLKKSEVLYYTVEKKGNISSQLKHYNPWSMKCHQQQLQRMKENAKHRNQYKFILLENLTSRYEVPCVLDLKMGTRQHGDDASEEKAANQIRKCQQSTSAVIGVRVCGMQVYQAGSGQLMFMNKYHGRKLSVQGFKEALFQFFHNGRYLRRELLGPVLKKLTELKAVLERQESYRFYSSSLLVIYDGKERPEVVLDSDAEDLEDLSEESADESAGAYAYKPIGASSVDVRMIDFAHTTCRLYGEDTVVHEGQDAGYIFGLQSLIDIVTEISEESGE
Method: as §1, §2

IP6K3, sequence (Q96PC2 whole entry): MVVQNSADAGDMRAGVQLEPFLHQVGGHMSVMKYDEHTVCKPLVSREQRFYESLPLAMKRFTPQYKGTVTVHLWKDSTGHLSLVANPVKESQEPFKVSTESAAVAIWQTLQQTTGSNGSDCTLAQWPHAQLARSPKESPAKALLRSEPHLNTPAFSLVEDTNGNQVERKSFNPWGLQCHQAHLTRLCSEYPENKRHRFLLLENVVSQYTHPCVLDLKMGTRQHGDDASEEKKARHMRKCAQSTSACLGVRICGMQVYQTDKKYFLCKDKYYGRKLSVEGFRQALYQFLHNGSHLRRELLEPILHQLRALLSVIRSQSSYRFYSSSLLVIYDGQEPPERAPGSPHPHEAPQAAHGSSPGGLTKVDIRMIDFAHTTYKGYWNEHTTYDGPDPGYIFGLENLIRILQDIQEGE
IP6K1, sequence (Q92551 whole entry): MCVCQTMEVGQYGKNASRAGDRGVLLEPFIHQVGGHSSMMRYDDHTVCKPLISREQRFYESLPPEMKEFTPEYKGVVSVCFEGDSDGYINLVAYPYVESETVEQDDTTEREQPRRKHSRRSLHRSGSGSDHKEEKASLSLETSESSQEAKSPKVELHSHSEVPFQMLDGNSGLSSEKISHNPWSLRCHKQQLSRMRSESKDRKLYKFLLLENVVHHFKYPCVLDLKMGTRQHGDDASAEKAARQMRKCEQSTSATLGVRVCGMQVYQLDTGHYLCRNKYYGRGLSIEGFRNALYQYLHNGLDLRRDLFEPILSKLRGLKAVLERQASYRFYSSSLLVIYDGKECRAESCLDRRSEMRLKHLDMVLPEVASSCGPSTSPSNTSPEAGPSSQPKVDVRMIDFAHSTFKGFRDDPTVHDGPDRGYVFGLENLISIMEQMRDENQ

Compound | Effect of treatment on obesity, insulin resistance and fatty liver [1] | IC50 ([2]; Table 4) | IC50 ([3]; Table 4) | IC50 [4] | IC50 ([5]; Table 4) | IC50 ([2]; Table 2) | IC50 ([3]; Table 2) | IPMK IC50 ([4]; Table 2) | IC50 ([5]; Table 2)
O=[N+]([O-])c1ccc(CNc2nc(NCc3cccc(C(F)(F)F)c3)nc3nc[nH]c23)cc1 [TNP, N2-(m-Trifluorobenzyl)-N6-(p-nitrobenzyl)purine] | ameliorates obesity, insulin resistance and fatty liver |  |  |  |  |  |  |  | 
Clc1cnc(Oc2cccc(-c3onc4ccc(-c5nnn[nH]5)cc34)c2)c(Cl)c1 [Compound 80] |  | 10 to 100 nM | 10 to 100 nM | 10 to 100 nM | 10 to 100 nM |  |  |  | 
CC(C)NC(=O)c1ccc2noc(-c3ccccc3)c2c1 [Compound 22] |  |  |  |  |  | 1000 to 100000 nM | 1000 to 100000 nM | − | 100 to 1000 nM
Clc1ccccc1-c1onc2ccc(-c3nnn[nH]3)cc12 [Compound 76] |  | 100 to 1000 nM | 10 to 100 nM | < 10 nM | 10 to 100 nM |  |  |  | 
CN(C)CCOc1cccc(-c2onc3ccc(-c4nnn[nH]4)cc23)c1 [Compound 78] |  | 100 to 1000 nM | 100 to 1000 nM | < 10 nM | 100 to 1000 nM |  |  |  | 

— patent US20250154115A1, “ARYLBENZOISOXAZOLE COMPOUNDS AS IP6K AND IPMK INHIBITORS AND METHODS OF USE THEREOF” (THE UNIVERSITY OF NORTH CAROLINA AT CHAPEL HILL, priority 2022, published 2025)
